Data on two compounds can be found in patent publication US20260355168A1, “COMPOSITIONS AND METHODS FOR TREATING AND DETECTING CANCER” (CASE WESTERN RESERVE UNIVERSITY, priority 2022, published 2026).

For one assay, the target named is PTPμ (Homo sapiens, UniProt P28827). The assay can be described thus: In vitro phosphatase assay, GST-PTPμ_intra, malachite green. The format is biochemical. Further details: A2: GST-PTPμ_intra, entire intracellular domain, aa 765-1449 (phosphatase). The method, then: FIG. 8 illustrates a histogram showing the results of the phosphatase assays. […] The enzyme was pretreated on ice for 10 min, and the reactions started by addition of a peptide substrate and incubation at 30 °C. The amount of released phosphate was measured at 15 min using the malachite green reaction and normalized to that of the vehicle-treated control. Data is presented as percentages±s.e.m. of the indicated number of independent experiments. Differences were assessed using the Student's t-test with comparison to an untreated control sample (as all DMSO samples were set to 100% release). A difference was deemed significant at p<0.05.
Chain of PTPμ (P28827 21-1452): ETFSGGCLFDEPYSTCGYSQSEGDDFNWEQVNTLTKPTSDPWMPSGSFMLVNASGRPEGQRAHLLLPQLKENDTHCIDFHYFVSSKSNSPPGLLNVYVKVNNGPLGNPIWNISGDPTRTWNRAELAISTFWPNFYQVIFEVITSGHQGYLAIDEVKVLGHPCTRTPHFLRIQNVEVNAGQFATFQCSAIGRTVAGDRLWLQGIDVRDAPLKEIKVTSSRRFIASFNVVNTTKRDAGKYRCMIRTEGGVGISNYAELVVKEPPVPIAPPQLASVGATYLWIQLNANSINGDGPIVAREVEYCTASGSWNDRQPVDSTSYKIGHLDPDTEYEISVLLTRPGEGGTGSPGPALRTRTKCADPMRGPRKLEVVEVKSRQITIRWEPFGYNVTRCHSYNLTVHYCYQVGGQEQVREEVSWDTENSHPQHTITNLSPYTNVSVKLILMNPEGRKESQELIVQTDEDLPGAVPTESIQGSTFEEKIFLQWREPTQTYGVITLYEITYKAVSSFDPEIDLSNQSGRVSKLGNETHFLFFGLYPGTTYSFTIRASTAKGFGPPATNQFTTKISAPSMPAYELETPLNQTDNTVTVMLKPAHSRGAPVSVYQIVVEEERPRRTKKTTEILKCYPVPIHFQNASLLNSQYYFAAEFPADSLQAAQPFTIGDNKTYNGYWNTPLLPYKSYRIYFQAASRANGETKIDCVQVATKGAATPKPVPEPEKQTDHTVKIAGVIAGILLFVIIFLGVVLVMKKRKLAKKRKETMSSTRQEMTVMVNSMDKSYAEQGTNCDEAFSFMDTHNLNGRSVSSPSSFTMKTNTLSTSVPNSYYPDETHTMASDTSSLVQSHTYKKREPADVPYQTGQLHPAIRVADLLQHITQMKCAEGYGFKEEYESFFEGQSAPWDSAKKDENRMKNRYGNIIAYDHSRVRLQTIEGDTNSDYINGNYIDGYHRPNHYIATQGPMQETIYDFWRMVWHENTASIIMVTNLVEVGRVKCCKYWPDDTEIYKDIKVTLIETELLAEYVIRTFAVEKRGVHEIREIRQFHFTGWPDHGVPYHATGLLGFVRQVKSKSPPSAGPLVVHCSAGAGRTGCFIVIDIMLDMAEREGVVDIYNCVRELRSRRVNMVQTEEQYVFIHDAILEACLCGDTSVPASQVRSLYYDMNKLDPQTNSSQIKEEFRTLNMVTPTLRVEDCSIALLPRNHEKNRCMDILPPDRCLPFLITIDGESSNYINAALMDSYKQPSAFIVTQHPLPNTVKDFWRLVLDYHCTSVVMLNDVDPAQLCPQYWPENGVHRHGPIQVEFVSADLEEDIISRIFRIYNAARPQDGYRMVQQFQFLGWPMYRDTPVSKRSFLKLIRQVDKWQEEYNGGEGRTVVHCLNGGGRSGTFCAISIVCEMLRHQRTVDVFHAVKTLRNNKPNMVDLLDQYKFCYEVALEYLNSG
A GST fusion protein containing the intracellular domain of PTPμ (B5: aa 765-1449) (PTPμ_intra) was prepared as described. Phosphatase reactions (50 μl total volume) were assembled on ice by mixing 0.4 μg GST-PTPμ_intra with phosphatase buffer (25 mM Hepes pH 7.4, 50 mM NaCl and 2 mM DTT) and compounds (100 μM) or DMSO (1%). […] Colorimetric product was allowed to develop for 15 min at room temperature, and the absorbance of the samples and a standard curve of free phosphate (assembled per the manufacturer's instructions) were read at 600 nm on a Synergy HT Microplate Reader (BioTek Instruments Inc., Winooski, Vermont). The amount of released phosphate was calculated, normalized to that released by the DMSO control sample, and expressed as a percent. […]

The next assay has as its system LN229 tumor xenograft. As to the kind of experiment: Human glioma flank tumor (LN229) growth assay in nude mice. The format is in vivo, athymic nude mice; human LN229 cells. Here is the method:
FIGS. 9(A-C) illustrates a plot and images of the results of the human glioma tumor model in mice. LN229-flank tumors (n=6 per treatment group) established in nude mice were injected with vehicle or compound once a week for three weeks. A. Tumor sizes were measured once a week for four weeks and normalized to their starting sizes. Data is presented as average percent growth±s.e.m. Between-group comparisons were made using Student's t-test. Differences were considered significant at p<0.05. […] Representative images of H&E-stained sections from tumors (two per treatment group) harvested at 4-weeks are shown.
Glioma-cell tumor xenografts were prepared as previously described. Briefly, LN229 cells (2×10^6 per injection) mixed with Matrigel (Corning, Corning Inc., Corning, NY, USA) were subcutaneously injected into the flank of athymic nude (FoxN1^nu/Foxn1^nu) female mice bred by the Case Western Reserve University Athymic Animal Core Facility or obtained from The Jackson Laboratory (Bar Harbor, ME). Experiments were approved by our IACUC committee. Twelve days post tumor-cell-injection, 247678835 or DMSO was diluted into PBS to give final concentrations of 2 mM or 20%, respectively, and 25 μl was injected into the center of each flank tumor. Additional compound or DMSO injections were given 7 and 14 days after the first injection, and tumor volumes [(length×width^2)/2] were recorded once a week for 4 weeks. At four weeks, mice were sacrificed, and tumors were isolated, fixed in 10% buffered formalin, and prepared for paraffin sectioning. Five micron-thick sections were cut, stained with H&E, and images captured with a Hamamatsu Nanozoomer S60 Slide Scanner (Hama-matsu Photonics, K.K., Bridgewater, NJ, USA).
Human LN229 glioma cells were subcutaneously injected into the flanks of twelve athymic nude mice (n=6 per treatment group). Once tumors were established (12-days post cell injection), DMSO or 247678835 was injected into the center of each tumor once a week for three weeks, and tumor volumes were calculated from caliper measurements. […] Mice were sacrificed 4 weeks after the first treatment, and tumors were harvested, fixed, sectioned, and stained with H&E.

Entries after “also recorded” stand apart in the source; their conditions may differ.

In the case of `O=C(NCc1nc(-c2ccncc2)no1)c1ccc(Cl)c(S(=O)(=O)NCc2ccccc2)c1` [Compound 247678791], at PTPμ (role: inhibitor, 100 μM, peptide substrate 60 μM, 30 °C, pH 7.4), the “Effect on PTPμ phosphatase activity (released phosphate)” value is “modestly inhibit PTPμ's catalytic activity in vitro; also recorded: modest, but highly consistent reduction in released phosphate; also recorded: modestly inhibit the phosphatase activity of a PTPμ-intracellular construct; also recorded: modest, but statistically significant, reduction on enzymatic activity”.

Consider `COc1cc(C)ccc1OCC(=O)Nc1nc(-c2c[nH]c(C(N)=O)c2)cs1` [Compound 247678835], for which, in the assay with LN229 tumor xenograft (3 weeks post first injection, intratumoral once a week, 2 mM, 25 μl), the “Tumor size relative to starting size” value is recorded as 1.3 ×. Besides, the “Effect on tumor growth after treatment stopped” value in the assay on LN229 tumor xenograft (4 weeks post first injection, in words) is “appeared to rebound; also recorded: no longer statistically appreciable at 4 weeks post-injection”. In addition, in the assay with LN229 tumor xenograft (tumors harvested at 4 weeks), the “Tumor histology (H&E)” value is “generally appeared less ‘cellular’ than DMSO-treated controls; also recorded: appeared smaller and less cellular”. Also, the “Effect on tumor growth” value in the assay on LN229 tumor xenograft (up to 3 weeks post first injection, intratumoral, in words) is “inhibit glioma-cell growth in a human glioma tumor model in mice; also recorded: inhibit flank tumor growth in vivo; also recorded: able to affect tumor growth in vivo; also recorded: slowed tumor growth, producing a statistically significant growth reduction by 3 weeks post-first injection”. Also, the “Interference with malachite green dye” value on PTPμ (apparent reaction product in absence of enzyme/substrate) was “reacted with the malachite green dye, giving an apparent reaction product in the absence of enzyme/substrate; also recorded: interacted with the dye used to measure the release of free phosphate”.
